Biological target: T1, hTDO2 (Homo sapiens, UniProt P48775)
T1 construct: endogenous in cells; host or cells: A172 human brain glioblastoma cells (ATCC CRL-1620)
Experiment: Cellular assay for TDO2 activity determination in A172 cells
Format: cell-based
Settings: human glioblastoma A172 cells naturally expressing hTDO2; overnight incubation; kynurenine by absorbance at 480 nm
Outline: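 A172 glioblastoma cells endogenously expressing hTDO2, 1.25×10^4 cells/well, incubated overnight at 37 °C, 5% CO2 in IMDM with 2% FBS and ten compound concentrations. Supernatant kynurenine measured after TCA treatment and Ehrlich's reagent (4-dimethylaminobenzaldehyde) by absorbance at 480 nm against a kynurenine standard curve, then curve-fitted.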

T1 sequence (P48775 whole entry): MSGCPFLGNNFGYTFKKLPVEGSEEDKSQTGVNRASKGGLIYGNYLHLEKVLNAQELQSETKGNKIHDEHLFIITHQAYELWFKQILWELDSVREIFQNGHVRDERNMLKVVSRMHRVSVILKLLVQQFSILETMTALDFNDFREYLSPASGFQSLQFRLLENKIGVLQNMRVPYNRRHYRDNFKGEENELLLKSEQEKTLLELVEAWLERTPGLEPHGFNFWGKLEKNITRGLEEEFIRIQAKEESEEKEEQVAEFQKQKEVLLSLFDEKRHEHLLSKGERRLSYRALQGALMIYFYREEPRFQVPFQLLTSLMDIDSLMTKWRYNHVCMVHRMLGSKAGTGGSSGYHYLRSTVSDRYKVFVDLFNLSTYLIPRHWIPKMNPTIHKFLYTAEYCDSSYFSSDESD

Row | IC50 | Compound
1 | 234 nM | CNCC1NS(=O)(=O)c2ccc(-c3c[nH]c4cc(F)ccc34)cc21 (single isomer, unassigned; (+)) [Example 138, (+)-5-(6-fluoro-1H-indol-3-yl)-3-((methylamino)methyl)-2,3-dihydrobenzo[d]isothiazole 1,1-dioxide]
2 | 114 nM | CC1c2cc(-c3c[nH]c4cc(F)ccc34)ccc2S(=O)(=O)N1C[C@H](O)CO (single isomer, unassigned) [Example 95]
3 | 92 nM | CNC(=O)C(C)N1C(C)c2cc(-c3c[nH]c4cc(F)ccc34)ccc2S1(=O)=O (single isomer, unassigned; (-)) [Example 145, (−)-2-(5-(6-fluoro-1H-indol-3-yl)-3-methyl-1,1-dioxidobenzo[d]isothiazol-2(3H)-yl)-N-methylpropanamide]
4 | 520 nM | CS(=O)(=O)NCC1NS(=O)(=O)c2ccc(-c3c[nH]c4cc(F)ccc34)cc21 (single isomer, unassigned; (-)) [Example 139, (−)-N-((5-(6-fluoro-1H-indol-3-yl)-1,1-dioxido-2,3-dihydrobenzo[d]isothiazol-3-yl)methyl)methanesulfonamide]
5 | 390 nM | CC1c2cc(-c3c[nH]c4cc(F)ccc34)ccc2S(=O)(=O)N1C1CCNC(=O)C1 (single isomer, unassigned; (-)) [Example 119, (−)-4-(-5-(6-fluoro-1H-indol-3-yl)-3-methyl-1,1-dioxidobenzo[d]isothiazol-2(3H)-yl)piperidin-2-one]
6 | 342 nM | O=S1(=O)c2ccc(-c3c[nH]c4cc(F)ccc34)cc2C(CO)N1CC(O)CO (single isomer, unassigned; (-)) [Example 143, (−)-2-(2,3-dihydroxypropyl)-5-(6-fluoro-1H-indol-3-yl)-3-(hydroxymethyl)-2,3-dihydrobenzo[d]isothiazole 1,1-dioxide]
7 | 397 nM | CC1c2cc(-c3c[nH]c4cc(F)ccc34)ccc2S(=O)(=O)N1Cc1ccccn1 (stereo not shown) [Example 149, 5-(6-fluoro-1H-indol-3-yl)-3-methyl-2-(pyridin-2-ylmethyl)-2,3-dihydrobenzo[d]isothiazole 1,1-dioxide]
8 | 366 nM | CNC(=O)C(N)CN1C(C)c2cc(-c3c[nH]c4cc(F)ccc34)ccc2S1(=O)=O (single isomer, unassigned) [Example 101]
9 | 499 nM | CNC(=O)C(CN1C(C)c2cc(-c3c[nH]c4cc(F)ccc34)ccc2S1(=O)=O)OC (single isomer, unassigned; (+)) [Example 107, (+)-3-(5-(6-fluoro-1H-indol-3-yl)-3-methyl-1,1-dioxidobenzo[d]isothiazol-2(3H)-yl)-2-methoxy-N-methylpropanamide]

The remaining lines, values behind:

Row | Compound | IC50
10 | O=S1(=O)NC(C2CC2)c2cc(-c3c[nH]c4cc(F)ccc34)ccc21 (single isomer, unassigned; (+)) [Example 10, (+)-3-cyclopropyl-5-(6-fluoro-1H-indol-3-yl)-2,3-dihydrobenzo[d]isothiazole 1,1-dioxide] | 240 nM
11 | NC(=O)C1NS(=O)(=O)c2ccc(-c3c[nH]c4cc(F)ccc34)cc21 (single isomer, unassigned; (+)) [Example 16, (+)-5-(6-fluoro-1H-indol-3-yl)-2,3-dihydrobenzo[d]-isothiazole-3-carboxamide 1,1-dioxide] | 1380 nM
12 | CC(=O)N1CCC(N2C(C)c3cc(-c4c[nH]c5cc(F)ccc45)ccc3S2(=O)=O)C1 (single isomer, unassigned; (+)) [Example 74, (+)-1-(3-(5-(6-fluoro-1H-indol-3-yl)-3-methyl-1,1-dioxidobenzo[d]isothiazol-2(3H)-yl)pyrrolidin-1-yl)ethanone] | 254 nM
13 | O=S1(=O)NC(CO)c2cc(-c3c[nH]c4cc(F)ccc34)ccc21 (single isomer, unassigned; (+)) [Example 13, (+)-5-(6-fluoro-1H-indol-3-yl)-3-(hydroxymethyl)-2,3-dihydrobenzo[d]isothiazole 1,1-dioxide] | 43 nM
14 | CNC(=O)C1NS(=O)(=O)c2ccc(-c3c[nH]c4cc(F)ccc34)cc21 (single isomer, unassigned; (-)) [Example 17, (−)-5-(6-fluoro-1H-indol-3-yl)-N-methyl-2,3-dihydrobenzo[d]isothiazole-3-carboxamide 1,1-dioxide] | 10000 nM
15 | CNS(=O)(=O)CCN1C(C)c2cc(-c3c[nH]c4cc(F)ccc34)ccc2S1(=O)=O (single isomer, unassigned; (-)) [Example 59, (−)-2-(5-(6-fluoro-1H-indol-3-yl)-3-methyl-1,1-dioxidobenzo[d]isothiazol-2(3H)-yl)-N-methylethane-1-sulfonamide] | 425 nM
16 | CC1c2cc(-c3c[nH]c4cc(F)ccc34)ccc2S(=O)(=O)N1CCS(C)(=O)=O (single isomer, unassigned; (-)) [Example 54, (−)-5-(6-fluoro-1H-indol-3-yl)-3-methyl-2-(2-(methylsulfonyl)ethyl)-2,3-dihydrobenzo[d]isothiazole 1,1-dioxide] | 233 nM
17 | CC(=O)N1CCC(N2C(C)c3cc(-c4c[nH]c5cc(F)ccc45)ccc3S2(=O)=O)C1 (single isomer, unassigned; (+)) [Example 73, (+)-1-(3-(5-(6-fluoro-1H-indol-3-yl)-3-methyl-1,1-dioxidobenzo[d]isothiazol-2(3H)-yl)pyrrolidin-1-yl)ethanone] | 246 nM
18 | C[S+]([O-])CCN1Cc2cc(-c3c[nH]c4cc(F)ccc34)ccc2S1(=O)=O (single isomer, unassigned; (+)) [Example 42, (+)-5-(6-fluoro-1H-indol-3-yl)-2-(2-(methylsulfinyl)ethyl)-2,3-dihydrobenzo[d]isothiazole 1,1-dioxide] | 142 nM
19 | COC(=O)NCC1NS(=O)(=O)c2ccc(-c3c[nH]c4cc(F)ccc34)cc21 (single isomer, unassigned; (+)) [Example 22, (+)-methyl ((5-(6-fluoro-1H-indol-3-yl)-1,1-dioxido-2,3-dihydrobenzo[d]isothiazol-3-yl)methyl)carbamate] | 647 nM
